According to ChEMBL document CHEMBL1201862, “PubChem BioAssay data set” (2004):
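A five-concentration, 48-hour dose response in 96-well plates underlies each endpoint, interpolated linearly between surrounding concentrations. GI50 = concentration required for 50% inhibition of growth.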 The source made the active and inactive calls. Cut-off read from the data, not from the text of the source: active = GI50 up to about 1.1 µM and inactive = higher. Residues, ends and D or L forms follow the SMILES beside them. *: point of attachment. Ethyl(2-NMe3+) = C[N+](C)(C)CC*; Boc = CC(C)(C)OC(=O)*

How the values were obtained:
Assay in all cases: NCI-60 cell line screen, 48 h
MOLT-4 = system: MOLT-4
TK-10 = system: TK-10
MDA-N = system: MDA-N
OVCAR-5 = system: OVCAR-5
A549 = system: A549
UO-31 = system: UO-31
MCF7 = system: MCF7
RPMI-8226 = system: RPMI-8226
M14 = system: M14
SF-539 = system: SF-539
SN12C = system: SN12C
SNB-75 = system: SNB-75
KM12 = system: KM12
K562 = system: K562
PC-3 = system: PC-3
DU-145 = system: DU-145
MDA-MB-231 = system: MDA-MB-231
HOP-62 = system: HOP-62

SMILES | GI50 (MOLT-4) | GI50 (TK-10) | GI50 (MDA-N) | GI50 (OVCAR-5) | GI50 (A549) | GI50 (UO-31) | GI50 (MCF7) | GI50 (RPMI-8226) | GI50 (M14) | GI50 (SF-539) | GI50 (SN12C) | GI50 (SNB-75) | GI50 (KM12) | GI50 (K562) | GI50 (PC-3) | GI50 (DU-145) | GI50 (MDA-MB-231) | GI50 (HOP-62)
C=CC[C@@]1(C)CCCCCCCCC[C@@](C)(CC=C)C1=O | 20.4 µM (inactive) | 99.1 µM (inactive) | 50.8 µM (inactive) | > 100 µM (inactive) | 40 µM (inactive) | 53.6 µM (inactive) | 38.8 µM (inactive) | 28.3 µM (inactive) | 28.6 µM (inactive) | 41.1 µM (inactive) | 29.2 µM (inactive) | 31.5 µM (inactive) | 30.1 µM (inactive) | 28.7 µM (inactive) | 37.1 µM (inactive) | 50.2 µM (inactive) | 28.8 µM (inactive) | 38.4 µM (inactive)
COc1ccc(CC2c3cc(OC)c(OC)cc3CC[N+]2(C)C)cc1OC (stereo not drawn) | > 100 µM (inactive) | > 100 µM (inactive) | > 100 µM (inactive) | > 100 µM (inactive) | > 100 µM (inactive) | > 100 µM (inactive) | > 100 µM (inactive) | > 100 µM (inactive) |  | > 100 µM (inactive) | > 100 µM (inactive) | > 100 µM (inactive) | > 100 µM (inactive) | > 100 µM (inactive) | > 100 µM (inactive) | > 100 µM (inactive) | > 100 µM (inactive) | 
NC(=O)c1nnc2cc(F)ccc2c1N | > 100 µM (inactive) | 76.2 µM (inactive) | > 100 µM (inactive) | > 100 µM (inactive) | > 100 µM (inactive) | 67.3 µM (inactive) | > 100 µM (inactive) | > 100 µM (inactive) | > 100 µM (inactive) | > 100 µM (inactive) | > 100 µM (inactive) | > 100 µM (inactive) | > 100 µM (inactive) | > 100 µM (inactive) | > 100 µM (inactive) | > 100 µM (inactive) | > 100 µM (inactive) | > 100 µM (inactive)
CC(C)Oc1c(N(Cc2ccccc2)c2ccccc2C2SCCCS2)c(=O)c1=O | 3.63 µM (inactive) | 8.63 µM (inactive) | 3.1 µM (inactive) | 5.97 µM (inactive) | 5.36 µM (inactive) | 6.67 µM (inactive) | 4.16 µM (inactive) | 4.24 µM (inactive) | 3.65 µM (inactive) | 2.76 µM (inactive) | 6.17 µM (inactive) | 2.51 µM (inactive) | 3.21 µM (inactive) | 4.05 µM (inactive) | 3.29 µM (inactive) | 4.18 µM (inactive) | 5.08 µM (inactive) | 3.96 µM (inactive)
CC(NC(=O)C(Cc1ccc(OCC[N+](C)(C)C)cc1)NC(=O)OC(C)(C)C)C(=O)NC(Cc1ccccc1)C(=O)NCC(N)=O (stereo not drawn) (Boc-Y(Ethyl(2-NMe3+))AFG-NH2; configuration not given here) | > 100 µM (inactive) | 11.8 µM (inactive) | > 100 µM (inactive) | 25.1 µM (inactive) | 36.8 µM (inactive) | 65.3 µM (inactive) | > 100 µM (inactive) | > 100 µM (inactive) | 65.9 µM (inactive) | 11.4 µM (inactive) | 37.2 µM (inactive) | 13.6 µM (inactive) | > 100 µM (inactive) | > 100 µM (inactive) | > 100 µM (inactive) | 36.1 µM (inactive) | 2.75 µM (inactive) | 2.44 µM (inactive)
CCOc1cc2c(cc1O)C(=O)C[C@@H]1[C@@H]2CC[C@]2(C)[C@@H](O)CC[C@@H]12 | 0.172 µM (active) | > 13.4 µM (inactive) | 0.0212 µM (active) | 20.6 µM (inactive) | 0.877 µM (active) | 0.482 µM (active) | 0.132 µM (active) | 0.154 µM (active) | 0.385 µM (active) | 0.155 µM (active) | 0.353 µM (active) | 0.106 µM (active) | 2.69 µM (inactive) | 0.0362 µM (active) | 2.71 µM (inactive) | 0.337 µM (active) | 0.525 µM (active) | 0.213 µM (active)
OC1(c2ccc(Cl)cc2)c2ccccc2C2=NCc3ccccc3CN21 (stereo not drawn) | 3.37 µM (inactive) | 14.6 µM (inactive) | 12.9 µM (inactive) | 13.1 µM (inactive) | 4.58 µM (inactive) | 7.98 µM (inactive) | 4.8 µM (inactive) | > 21.3 µM (inactive) | 2.96 µM (inactive) | 7.13 µM (inactive) | 17.5 µM (inactive) | 6.35 µM (inactive) | 4.7 µM (inactive) | 2.68 µM (inactive) | 4.74 µM (inactive) | 17.9 µM (inactive) | 16.6 µM (inactive) | 6.47 µM (inactive)
C[C@@H](NC(=O)Cn1c(Cl)nc2ccccc21)c1ccccc1 | > 100 µM (inactive) | > 100 µM (inactive) | > 100 µM (inactive) | > 100 µM (inactive) | > 100 µM (inactive) | > 100 µM (inactive) | > 100 µM (inactive) | > 100 µM (inactive) | > 100 µM (inactive) | > 100 µM (inactive) |  | > 100 µM (inactive) | > 100 µM (inactive) | > 100 µM (inactive) | > 100 µM (inactive) | > 100 µM (inactive) | > 100 µM (inactive) | > 100 µM (inactive)
C=C(C)[C@@H]1CC[C@]2(C(=O)OC3OC(COC4OC(CO)C(OC5OC(C)C(O)C(O)C5O)C(O)C4O)C(O)C(O)C3O)CC[C@]3(C)[C@H](CC[C@@H]4[C@@]5(C)CC[C@H](O)[C@@](C)(CO)[C@@H]5CC[C@]43C)[C@@H]12 (stereo partly drawn) | 0.39 µM (active) | 3.49 µM (inactive) | 4.58 µM (inactive) | 6.81 µM (inactive) | 0.986 µM (active) | 3.93 µM (inactive) | 3.02 µM (inactive) | 0.929 µM (active) | 3.48 µM (inactive) | 2.58 µM (inactive) | 3.5 µM (inactive) | 4.39 µM (inactive) | 0.625 µM (active) | 0.802 µM (active) | 2.6 µM (inactive) | 4.8 µM (inactive) | 3.56 µM (inactive) | 3.61 µM (inactive)
O=C1OC(c2ccccc2)N(C(=O)c2ccccc2)C1Cc1ccc(OCc2ccccc2)cc1 (stereo not drawn) |  | 43.9 µM (inactive) | > 100 µM (inactive) | > 100 µM (inactive) | 80.2 µM (inactive) | 21.1 µM (inactive) | 5.48 µM (inactive) | 87.5 µM (inactive) | > 100 µM (inactive) | > 100 µM (inactive) | > 100 µM (inactive) | 15.7 µM (inactive) |  | > 100 µM (inactive) | 34.8 µM (inactive) | > 100 µM (inactive) | 2.6 µM (inactive) | 9.42 µM (inactive)
CCCCCC/C=C\CCCCCCCCCC1=C(CN2CCN(C)CC2)C(=O)C=C(OC)C1=O | 0.353 µM (active) | 2.92 µM (inactive) | 8.05 µM (inactive) | 15.2 µM (inactive) | 3.83 µM (inactive) | 3.03 µM (inactive) | 4.3 µM (inactive) | 2 µM (inactive) | 2.51 µM (inactive) | 15.4 µM (inactive) | 4.37 µM (inactive) | 1.62 µM (inactive) | 6.47 µM (inactive) | 2.24 µM (inactive) | 2.37 µM (inactive) | 13.4 µM (inactive) | 9.53 µM (inactive) | 15.6 µM (inactive)
CCOC(=O)c1nc2cc(C(F)(F)F)ccc2nc1Nc1ccc(OC)c(OC)c1 | > 100 µM (inactive) | > 100 µM (inactive) | > 100 µM (inactive) | > 100 µM (inactive) | > 100 µM (inactive) | > 100 µM (inactive) | > 100 µM (inactive) | > 100 µM (inactive) | > 100 µM (inactive) | > 100 µM (inactive) | > 100 µM (inactive) | 50.9 µM (inactive) | > 100 µM (inactive) | > 100 µM (inactive) | > 100 µM (inactive) | > 100 µM (inactive) | > 100 µM (inactive) | 32 µM (inactive)
COc1cccc([C@H]2CC(=O)c3cc4c(cc3N2)OCO4)c1 | 0.938 µM (active) | 0.979 µM (active) | 0.0789 µM (active) | 0.441 µM (active) | 0.296 µM (active) | 0.485 µM (active) | 0.552 µM (active) | 0.579 µM (active) | 0.237 µM (active) | 0.274 µM (active) | 0.394 µM (active) | > 100 µM (inactive) | 0.317 µM (active) | 1.3 µM (inactive) | 0.275 µM (active) | 0.397 µM (active) | 0.424 µM (active) | 0.568 µM (active)
O[C@@]1(C#Cc2ccc3c(c2)OCO3)CCC[C@H]1NCc1ccccc1 | 15.9 µM (inactive) | 27.7 µM (inactive) | 16.9 µM (inactive) | 34.8 µM (inactive) | 31.3 µM (inactive) | 18.6 µM (inactive) | 22.5 µM (inactive) | 24 µM (inactive) | 15.7 µM (inactive) | 16 µM (inactive) |  | 27.8 µM (inactive) | 20 µM (inactive) | 18.7 µM (inactive) | 19.2 µM (inactive) | 47.2 µM (inactive) | 24.9 µM (inactive) | 26.5 µM (inactive)
CCOC(=O)C1=C(OS(=O)(=O)C(F)(F)F)CCCC1 | > 100 µM (inactive) | > 100 µM (inactive) | > 100 µM (inactive) | > 100 µM (inactive) | > 100 µM (inactive) | > 100 µM (inactive) | > 100 µM (inactive) | > 100 µM (inactive) | > 100 µM (inactive) | > 100 µM (inactive) |  | > 100 µM (inactive) | > 100 µM (inactive) | > 100 µM (inactive) | > 100 µM (inactive) | > 100 µM (inactive) | > 100 µM (inactive) | > 100 µM (inactive)
